Calls of active or inactive are those of the source. The rule behind the calls is not given here.
How the values were obtained:
[1] = Antioxidant activity assessed as free radical scavenging activity at 100 ug/ml by DPPH assay relative to control; type: functional; details: dose 100.0 µg/ml
[2] = biological target: Acetylcholinesterase (Electrophorus electricus) (UniProt O42275); assay: Inhibition of electric eel AchE using acetylthiocholine iodide as substrate at 100 ug/ml by Ellman's method relative to control; details: dose 100.0 µg/ml
[3] = biological target: Amyloid-beta precursor protein (Homo sapiens) (UniProt P05067); assay: Disaggregation of amyloid beta (25 to 35) (unknown origin) mature fibrils at 50 ug/ml incubated for 1 to 9 days by ThT-based fluorescence microscopic analysis; details: dose 50.0 µg/ml, time 1-9 day
Chain of Amyloid-beta precursor protein (Homo sapiens) (P05067 whole entry): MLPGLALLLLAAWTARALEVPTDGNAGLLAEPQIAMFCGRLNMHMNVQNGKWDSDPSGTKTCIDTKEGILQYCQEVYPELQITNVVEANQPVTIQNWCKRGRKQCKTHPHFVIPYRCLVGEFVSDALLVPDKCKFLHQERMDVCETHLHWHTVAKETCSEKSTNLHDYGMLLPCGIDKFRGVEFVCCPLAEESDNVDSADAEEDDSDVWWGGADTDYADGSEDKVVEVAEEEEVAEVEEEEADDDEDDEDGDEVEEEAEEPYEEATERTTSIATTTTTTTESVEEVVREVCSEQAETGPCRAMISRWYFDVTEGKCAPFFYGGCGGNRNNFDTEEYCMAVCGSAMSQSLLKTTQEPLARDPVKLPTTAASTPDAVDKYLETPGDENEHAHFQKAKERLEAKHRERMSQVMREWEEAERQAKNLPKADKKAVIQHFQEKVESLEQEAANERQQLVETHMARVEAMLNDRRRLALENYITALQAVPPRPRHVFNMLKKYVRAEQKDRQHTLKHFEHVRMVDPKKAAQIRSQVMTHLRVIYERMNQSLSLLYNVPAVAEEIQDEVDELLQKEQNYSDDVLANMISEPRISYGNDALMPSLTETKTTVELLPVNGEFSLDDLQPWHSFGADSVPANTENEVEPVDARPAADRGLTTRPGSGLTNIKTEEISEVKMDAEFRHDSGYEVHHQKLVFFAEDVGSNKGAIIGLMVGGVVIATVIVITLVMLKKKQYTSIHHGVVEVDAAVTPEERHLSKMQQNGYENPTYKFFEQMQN

Chain of Acetylcholinesterase (Electrophorus electricus) (O42275 24-633 limits assumed): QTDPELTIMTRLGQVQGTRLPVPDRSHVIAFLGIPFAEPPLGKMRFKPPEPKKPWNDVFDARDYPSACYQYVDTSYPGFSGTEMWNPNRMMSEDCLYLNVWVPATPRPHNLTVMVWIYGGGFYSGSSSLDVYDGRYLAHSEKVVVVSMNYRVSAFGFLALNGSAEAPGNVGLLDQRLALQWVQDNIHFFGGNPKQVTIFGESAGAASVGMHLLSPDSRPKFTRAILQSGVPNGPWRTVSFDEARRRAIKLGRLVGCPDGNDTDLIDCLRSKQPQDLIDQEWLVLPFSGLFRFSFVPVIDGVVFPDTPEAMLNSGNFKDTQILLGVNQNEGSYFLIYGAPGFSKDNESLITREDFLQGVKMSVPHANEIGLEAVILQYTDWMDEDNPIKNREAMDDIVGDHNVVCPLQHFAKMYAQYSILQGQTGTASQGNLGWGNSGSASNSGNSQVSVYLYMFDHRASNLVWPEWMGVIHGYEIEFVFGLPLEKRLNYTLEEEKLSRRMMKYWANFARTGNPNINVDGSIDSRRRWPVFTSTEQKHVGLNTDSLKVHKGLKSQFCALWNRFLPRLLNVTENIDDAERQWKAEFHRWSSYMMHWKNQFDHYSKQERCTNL

SMILES | inhibition [1] [%] | inhibition [2] [%] | Activity [3]
COc1ccc([C@@H]2CC(=O)c3c(O)cc(O[C@@H]4O[C@H](CO[C@@H]5O[C@@H](C)[C@H](O)[C@@H](O)[C@H]5O)[C@@H](O)[C@H](O)[C@H]4O)cc3O2)cc1O | 56 | 94.4 | –
COc1ccc2c3c1O[C@H]1C[C@@H](O)C=C[C@@]31CCN(C)C2 | – | – | Active
